Source: patent publication US20040191843A1, “Cell-killing molecules and methods of use thereof” (Palo Alto Institute of Molecular Medicine, priority 2003, published 2004)

Tested on: U9-TR
Experiment: DNA fragmentation in whole cells (release of 3H-labeled DNA fragments, 4 h)
Assay type: cell-based, human
Experimental: DNA fragmentation in whole cells or normal nuclei isolated from U937 or MCF-7 cells was assayed by release of (3H)thymidine-labeled DNA fragments as described in detail previously (Wright et al. (1994) J. Exp. Med. 180, 2113-2123). DNA fragmentation induced by rADF treatment of isolated nuclei for four h was analyzed by agarose electrophoresis as described in detail previously (Wright et al. (1994) supra). In four h assays using isolated nuclei, the buffer was supplemented with an ATP regenerating system (2 mM ATP, 10 mM phosphocreatine, and 50 μg/ml creatine kinase).
Another mechanism whereby cancer cells may resist apoptosis is through overexpression of heat shock (HS) proteins which have been found at high levels in most tumor cell biopsies (Jaattela, et al., 1999, Exp Cell Res 248:30-43). […] We have studied the mechanisms of apoptosis resistance using several variants derived from the U937 cell line. Variants generated by prolonged growth in the presence of TNF (U9-TR) or by nutritional depletion of intracellular NAD content (U9-NAD-) have been described in the literature previously (Wright, et al., 1992, Cancer Immunol Immunother 34:399-406; Wright, et al., 1996b, J. Exp. Med. 183: 463-477). Both of these variants were resistant to apoptosis induced by diverse agents, such as chemotherapeutic drugs, UV light, and TNF.

COc1cc([C@@H]2c3cc4c(cc3[C@@H](O[C@@H]3O[C@@H]5CO[C@@H](C)O[C@H]5[C@H](O)[C@H]3O)[C@H]3COC(=O)[C@H]23)OCO4)cc(OC)c1O [Etoposide, etoposide]
fold increase of IC50 values in resistant variants: > 41 fold
